What all share (format): functional
Test [1] concerns Escherichia coli. Kind of test: Antimicrobial activity against Escherichia coli ATCC 25922 assessed as diameter of growth inhibition zone at 500 ug/ml after 24 hr by agar well plate method. The conditions noted are these: ATCC 25922, 24 h, read-out: DIZ.
The test system of test [2] is Aspergillus flavus. Kind of test: Antimicrobial activity against Aspergillus flavus assessed as diameter of growth inhibition zone at 500 ug/ml after 72 hr by agar well plate method. The conditions noted are these: read-out: DIZ.
The subject of test [3] is Staphylococcus aureus. Kind of test: Antimicrobial activity against Staphylococcus aureus ATCC 25923 assessed as diameter of growth inhibition zone at 500 ug/ml after 24 hr by agar well plate method. The conditions noted are these: ATCC 25923, 24 h, read-out: DIZ.
Test [4] relates to Candida albicans. Kind of test: Antimicrobial activity against Candida albicans MTCC 227 assessed as diameter of growth inhibition zone at 500 ug/ml after 72 hr by agar well plate method. As to conditions: MTCC 227, 72 h, read-out: DIZ.
Test [5] deals with Chrysosporium keratinophilum. Kind of test: Antimicrobial activity against Chrysosporium keratinophilum assessed as diameter of growth inhibition zone at 1000 ug/ml after 72 hr by agar well plate method. The conditions noted are these: read-out: DIZ.
In test [6] the test system is Escherichia coli. Kind of test: Antimicrobial activity against Escherichia coli ATCC 25922 assessed as diameter of growth inhibition zone at 1000 ug/ml after 24 hr by agar well plate method. The conditions noted are these: ATCC 25922, 24 h, read-out: DIZ.
The test system of test [7] is Chrysosporium keratinophilum. Kind of test: Antimicrobial activity against Chrysosporium keratinophilum assessed as diameter of growth inhibition zone at 500 ug/ml after 72 hr by agar well plate method. As to conditions: read-out: DIZ.
In test [8] the test system is Aspergillus flavus. Kind of test: Antimicrobial activity against Aspergillus flavus assessed as diameter of growth inhibition zone at 1000 ug/ml after 72 hr by agar well plate method. The conditions noted are these: read-out: DIZ.
The test system of test [9] is Pseudomonas aeruginosa. Kind of test: Antimicrobial activity against Pseudomonas aeruginosa ATCC 27853 assessed as diameter of growth inhibition zone at 500 ug/ml after 24 hr by agar well plate method. As to conditions: ATCC 27853, 24 h, read-out: DIZ.
In test [10] the test system is Pseudomonas aeruginosa. Kind of test: Antimicrobial activity against Pseudomonas aeruginosa ATCC 27853 assessed as diameter of growth inhibition zone at 1000 ug/ml after 24 hr by agar well plate method. The conditions noted are these: ATCC 27853, 24 h, read-out: DIZ.
Test [11] deals with Candida albicans. Kind of test: Antimicrobial activity against Candida albicans MTCC 227 assessed as diameter of growth inhibition zone at 1000 ug/ml after 72 hr by agar well plate method. The conditions noted are these: MTCC 227, 72 h, read-out: DIZ.
In test [12] the test system is Staphylococcus aureus. Kind of test: Antimicrobial activity against Staphylococcus aureus ATCC 25923 assessed as diameter of growth inhibition zone at 1000 ug/ml after 24 hr by agar well plate method. The conditions noted are these: ATCC 25923, 24 h, read-out: DIZ.

Take `COc1ccc(-c2nn(-c3ccccc3)cc2C2CC(c3ccc(SC)cc3)=NN2c2ccccc2)cc1` (centres undefined): the zone of inhibition at 500 µg/mL with Escherichia coli [1] came to 1 mm; in the test with Aspergillus flavus [2], 0 mm; in the test on Staphylococcus aureus [3] it was 3 mm; with Candida albicans [4], 0 mm; in test [7], 0 mm; with Pseudomonas aeruginosa [9], 2 mm. The zone of inhibition at 1000 µg/mL in test [5] stood at 0 mm; with Escherichia coli [6], 2 mm; in the test with Aspergillus flavus [8] it was 0 mm; with Pseudomonas aeruginosa [10], 4 mm; with Candida albicans [11], 0 mm; with Staphylococcus aureus [12], 4 mm.

Turning to `COc1ccc(-c2nn(-c3ccccc3)cc2C2CC(c3ccc(Cl)cc3Cl)=NN2c2ccccc2)cc1` (centres undefined), the zone of inhibition at 500 µg/mL with Escherichia coli [1] came to 2 mm; in the test with Aspergillus flavus [2], 0 mm; with Staphylococcus aureus [3] it was 3 mm; in the test on Candida albicans [4], 0 mm; in test [7], 0 mm; in the test on Pseudomonas aeruginosa [9], 1 mm. Further, the zone of inhibition at 1000 µg/mL in [5] stood at 0 mm; with Escherichia coli [6], 3 mm; in the test with Aspergillus flavus [8], 0 mm; in the test with Pseudomonas aeruginosa [10], 4 mm; with Candida albicans [11], 0 mm; in the test with Staphylococcus aureus [12], 4 mm.

Consider `Clc1ccc(-c2nn(-c3ccccc3)cc2C2CC(c3ccc(Cl)cc3Cl)=NN2c2ccccc2)cc1` (centres undefined), for which the zone of inhibition at 500 µg/mL in the test on Escherichia coli [1] turned out to be 4 mm; with Aspergillus flavus [2], 2 mm; in the test on Staphylococcus aureus [3], 4 mm; in the test with Candida albicans [4] it was 2 mm; in [7], 2 mm; in the test on Pseudomonas aeruginosa [9] it was 6 mm. Also, the zone of inhibition at 1000 µg/mL in test [5] came to 5 mm; in the test on Escherichia coli [6], 6 mm; with Aspergillus flavus [8], 4 mm; with Pseudomonas aeruginosa [10] it was 8 mm; in the test with Candida albicans [11] it was 4 mm; in the test with Staphylococcus aureus [12], 7 mm.

Consider `Clc1ccc(C2=NN(c3ccccc3)C(c3cn(-c4ccccc4)nc3-c3ccc(Br)cc3)C2)c(Cl)c1` (centres undefined), for which the zone of inhibition at 500 µg/mL in the test with Escherichia coli [1] is 5 mm; with Aspergillus flavus [2], 1 mm; with Staphylococcus aureus [3] it was 6 mm; in the test on Candida albicans [4], 1 mm; in test [7], 2 mm; in the test on Pseudomonas aeruginosa [9], 5 mm. Besides, the zone of inhibition at 1000 µg/mL in test [5] worked out at 4 mm; in the test with Escherichia coli [6] it was 8 mm; in the test with Aspergillus flavus [8], 4 mm; in the test with Pseudomonas aeruginosa [10], 5 mm; with Candida albicans [11], 3 mm; in the test with Staphylococcus aureus [12], 8 mm.

For `Clc1ccc(C2=NN(c3ccccc3)C(c3cn(-c4ccccc4)nc3-c3ccccc3)C2)c(Cl)c1` (centres undefined), the zone of inhibition at 500 µg/mL (in the test with Escherichia coli [1]; in the test on Aspergillus flavus [2]; in the test on Staphylococcus aureus [3]; with Candida albicans [4]; in [7]; in the test on Pseudomonas aeruginosa [9]) was 0 mm each time. The zone of inhibition at 1000 µg/mL (in test [5]; with Escherichia coli [6]; with Aspergillus flavus [8]; in the test with Pseudomonas aeruginosa [10]; with Candida albicans [11]; with Staphylococcus aureus [12]) was 0 mm in each case.

In the case of `CSc1ccc(C2=NN(c3ccccc3)C(c3cn(-c4ccccc4)nc3-c3ccc(Br)cc3)C2)cc1` (centres undefined), the zone of inhibition at 500 µg/mL is 6 mm in the test with Escherichia coli [1]; 3 mm in the test on Aspergillus flavus [2]; 7 mm in the test on Staphylococcus aureus [3]; 2 mm in the test on Candida albicans [4]; 5 mm in test [7]; 6 mm in the test with Pseudomonas aeruginosa [9]. Besides, the zone of inhibition at 1000 µg/mL in test [5] was found to be 6 mm; in the test on Escherichia coli [6] it was 7 mm; in the test on Aspergillus flavus [8], 4 mm; in the test with Pseudomonas aeruginosa [10] it was 8 mm; in the test on Candida albicans [11], 4 mm; in the test on Staphylococcus aureus [12], 9 mm.

For `COc1ccc(-c2nn(-c3ccccc3)cc2C2CC(c3ccc(-c4ccccc4)cc3)=NN2c2ccccc2)cc1` (centres undefined), the zone of inhibition at 500 µg/mL was found to be 2 mm with Escherichia coli [1]; 0 mm in the test on Aspergillus flavus [2]; 2 mm with Staphylococcus aureus [3]; 0 mm with Candida albicans [4]; 0 mm in test [7]; 2 mm in the test with Pseudomonas aeruginosa [9]. Besides, the zone of inhibition at 1000 µg/mL worked out at 0 mm in test [5]; 4 mm with Escherichia coli [6]; 0 mm in the test on Aspergillus flavus [8]; 5 mm with Pseudomonas aeruginosa [10]; 0 mm with Candida albicans [11]; 4 mm in the test on Staphylococcus aureus [12].

For the compound `CSc1ccc(C2=NN(c3ccccc3)C(c3cn(-c4ccccc4)nc3-c3ccccc3)C2)cc1` (centres undefined), the zone of inhibition at 500 µg/mL in the test on Escherichia coli [1] amounted to 1 mm; in the test with Aspergillus flavus [2], 0 mm; in the test with Staphylococcus aureus [3], 0 mm; in the test with Candida albicans [4] it was 0 mm; in test [7], 0 mm; in the test with Pseudomonas aeruginosa [9], 2 mm. Also, the zone of inhibition at 1000 µg/mL in test [5] was 0 mm; with Escherichia coli [6], 3 mm; in the test with Aspergillus flavus [8], 0 mm; with Pseudomonas aeruginosa [10], 3 mm; in the test with Candida albicans [11] it was 0 mm; with Staphylococcus aureus [12], 2 mm.

In the case of `CSc1ccc(C2=NN(c3ccccc3)C(c3cn(-c4ccccc4)nc3-c3ccc(Cl)cc3)C2)cc1` (centres undefined), the zone of inhibition at 500 µg/mL with Escherichia coli [1] was determined as 4 mm; in the test on Aspergillus flavus [2] it was 2 mm; with Staphylococcus aureus [3], 5 mm; in the test on Candida albicans [4], 1 mm; in [7], 1 mm; in the test with Pseudomonas aeruginosa [9] it was 4 mm. For the same compound, the zone of inhibition at 1000 µg/mL is 3 mm in test [5]; 5 mm in the test on Escherichia coli [6]; 3 mm with Aspergillus flavus [8]; 7 mm in the test with Pseudomonas aeruginosa [10]; 3 mm in the test on Candida albicans [11]; 8 mm in the test on Staphylococcus aureus [12].

Turning to `Clc1ccc(-c2nn(-c3ccccc3)cc2C2CC(c3ccc(-c4ccccc4)cc3)=NN2c2ccccc2)cc1` (centres undefined), the zone of inhibition at 500 µg/mL in the test with Escherichia coli [1] turned out to be 5 mm; in the test with Aspergillus flavus [2], 3 mm; in the test on Staphylococcus aureus [3] it was 6 mm; in the test with Candida albicans [4] it was 2 mm; in test [7], 3 mm; with Pseudomonas aeruginosa [9], 6 mm. Besides, the zone of inhibition at 1000 µg/mL worked out at 4 mm in [5]; 7 mm with Escherichia coli [6]; 5 mm in the test with Aspergillus flavus [8]; 4 mm in the test on Pseudomonas aeruginosa [10]; 5 mm with Candida albicans [11]; 8 mm in the test on Staphylococcus aureus [12].

Consider `Brc1ccc(-c2nn(-c3ccccc3)cc2C2CC(c3ccc(-c4ccccc4)cc3)=NN2c2ccccc2)cc1` (centres undefined), for which the zone of inhibition at 500 µg/mL in the test with Escherichia coli [1] was found to be 6 mm; with Aspergillus flavus [2], 5 mm; in the test with Staphylococcus aureus [3], 4 mm; in the test on Candida albicans [4], 4 mm; in test [7], 3 mm; in the test with Pseudomonas aeruginosa [9], 5 mm. Also, the zone of inhibition at 1000 µg/mL came to 4 mm in test [5]; 9 mm in the test on Escherichia coli [6]; 6 mm in the test with Aspergillus flavus [8]; 7 mm in the test on Pseudomonas aeruginosa [10]; 5 mm in the test on Candida albicans [11]; 6 mm in the test on Staphylococcus aureus [12].

Take `OC(Cn1cncn1)(Cn1cncn1)c1ccc(F)cc1F` [FLUCONAZOLE]: the results for the zone of inhibition at 500 µg/mL (in the test with Aspergillus flavus [2]; in the test with Candida albicans [4]; in test [7]) were 10 mm, 20 mm and 15 mm, respectively. For the same compound, the zone of inhibition at 1000 µg/mL in test [5] was 17 mm; with Aspergillus flavus [8], 13 mm; in the test on Candida albicans [11] it was 22 mm.

On to `CN[C@@H]1[C@H](O[C@H]2[C@H](O[C@H]3[C@H](O)[C@@H](O)[C@H](N=C(N)N)[C@@H](O)[C@@H]3N=C(N)N)O[C@@H](C)[C@]2(O)C=O)O[C@@H](CO)[C@H](O)[C@H]1O` [STREPTOMYCIN], for which the zone of inhibition at 500 µg/mL in the test on Escherichia coli [1] was 10 mm; with Staphylococcus aureus [3] it was 10 mm; in the test with Pseudomonas aeruginosa [9], 13 mm. The zone of inhibition at 1000 µg/mL in the test on Escherichia coli [6] came to 16 mm; with Pseudomonas aeruginosa [10], 16 mm; with Staphylococcus aureus [12], 15 mm.

The record behind these values is ChEMBL document CHEMBL3045707, “Synthesis of new 3-aryl-4-(3-aryl-4,5-dihydro-1H-pyrazol-5-yl)-1-phenyl-1H-pyrazole derivatives as potential antimicrobial agents” (2013).
